Data published in ChEMBL document CHEMBL1125004, “Chemistry and pharmacology of the non-benzodiazepine anxiolytic enciprazine and related compounds” (1990).

What was measured:
Mus musculus [1] = test: Antiaggressive anxiolytic activity in the electroshock-induced fighting test in mice (po); Range (9.6-16.7); assay type: functional
Mus musculus [2] = test: Antiaggressive anxiolytic activity in the electroshock-induced fighting test in mice (po); Range (14.7-24.8); assay type: functional
Mus musculus [3] = test: Antiaggressive anxiolytic activity in the electroshock-induced fighting test in mice (po); Range (9.7-19.3); assay type: functional
Monkey [4] = test: Tested for ability to maintain self-administration after administration of 0.3 mg/kg in monkey 9079 Range (32-53); assay type: functional, Cercopithecidae
Monkey [5] = test: Tested for ability to maintain self-administration after administration of 0.3 mg/kg in monkey 3017 Range (28-50); assay type: functional, Cercopithecidae
Monkey [6] = test: Tested for ability to maintain self-administration after administration of 0.01 mg/kg in monkey 2037 Range (33-51); assay type: functional, Cercopithecidae
Monkey [7] = test: Tested for ability to maintain self-administration after administration of 0.1 mg/kg in monkey 9079 Range (5-20); assay type: functional, Cercopithecidae
Monkey [8] = test: Tested for ability to maintain self-administration after administration of 0.1 mg/kg in monkey 3017 Range ([…]); assay type: functional, Cercopithecidae
Monkey [9] = test: Tested for ability to maintain self-administration after administration of 0.1 mg/kg in monkey 3038 Range (42-58); assay type: functional, Cercopithecidae
Monkey [10] = test: Tested for ability to maintain self-administration after administration of 0.1 mg/kg in monkey 2037; assay type: functional, Cercopithecidae
Monkey [11] = test: Tested for ability to maintain self-administration after administration of 0.1 mg/kg in monkey 2036 Range (37-43); assay type: functional, Cercopithecidae
Monkey [12] = test: Tested for ability to maintain self-administration after administration of 0.01 mg/kg in monkey 3017 Range (14-22); assay type: functional, Cercopithecidae
Monkey [13] = test: Tested for ability to maintain self-administration after administration of 0.3 mg/kg in monkey 3038 Range (12-32); assay type: functional, Cercopithecidae
Monkey [14] = test: Tested for ability to maintain self-administration after administration of 0.03 mg/kg in monkey 2036 Range (30-36); assay type: functional, Cercopithecidae
Monkey [15] = test: Tested for ability to maintain self-administration after administration of 0.56 mg/kg in monkey 9079 Range (15-18); assay type: functional, Cercopithecidae
Monkey [16] = test: Tested for ability to maintain self-administration after administration of 0.03 mg/kg in monkey 2037 Range (63-73); assay type: functional, Cercopithecidae
Monkey [17] = test: Tested for ability to maintain self-administration after administration of 0.03 mg/kg in monkey 3017 Range (26-29); assay type: functional, Cercopithecidae
Monkey [18] = test: Tested for ability to maintain self-administration after administration of 0.3 mg/kg in monkey 9083 Range (14-23); assay type: functional, Cercopithecidae
Monkey [19] = test: Tested for ability to maintain self-administration after administration of 0.1 mg/kg in monkey 9083 Range (20-32); assay type: functional, Cercopithecidae
Monkey [20] = test: Tested for ability to maintain self-administration after administration of 0.03 mg/kg in monkey 3038 Range (0-14); assay type: functional, Cercopithecidae
Monkey [21] = test: Tested for ability to maintain self-administration after administration of 0.3 mg/kg in monkey 2036 Range (10-12); assay type: functional, Cercopithecidae
Monkey [22] = test: Tested for ability to maintain self-administration after administration of 0.01 mg/kg in monkey 2036 Range (25-28); assay type: functional, Cercopithecidae
Monkey [23] = test: Tested for ability to maintain self-administration after administration of 0.03 mg/kg in monkey 9083 Range (19-47); assay type: functional, Cercopithecidae
Mus musculus [24] = species on record: Mus musculus; test: Effect on hexobarbital induced sleep was determined in hexobarbital potentiation test; Range (172.3-227.4); assay type: functional
Mus musculus [25] = species on record: Mus musculus; test: Ataxic activity in mice by rotarod test; Range (86.2-116.6); assay type: functional
[26] = Ratio of ED50 (hexobarbital) to that of ED50 (fighting); assay type: functional
Mus musculus [27] = test: Antiaggressive anxiolytic activity in the electroshock-induced fighting test in mice (po); Range (0.58-2.63); assay type: functional
[28] = Ratio of ED50 (rotarod) to that of ED50 (fighting); assay type: functional

With `COc1cc(OCC(O)CN2CCN(c3ccc(C)c(C)c3)CC2)cc(OC)c1OC.Cl` (stereo not drawn) the ED50 (Mus musculus [1]) was 13 mg/kg.

Compound `CCOc1ccccc1N1CCN(CC(O)COc2cc(OC)c(OC)c(OC)c2)CC1.Cl` (stereo not drawn) has an ED50 (Mus musculus [2]) of 19 mg/kg.

In the case of `COc1cc(OCC(O)CN2CCN(c3ccccc3SC)CC2)cc(OC)c1OC.Cl` (stereo not drawn), the ED50 (Mus musculus [3]) is reported as 14 mg/kg.

`CCN(CC)CCN1C(=O)CN=C(c2ccccc2F)c2cc(Cl)ccc21` [FLURAZEPAM] showed an Effect (Monkey [4]) of 44.7, an Effect (Monkey [5]) of 40.3 and an Effect (Monkey [6]) of 40.7. For the same compound, the Effect (Monkey [7]) was 12.5, the Effect (Monkey [8]) was 54.7 and the Effect (Monkey [9]) was 50. For the same compound, the Effect (Monkey [10]) was 33, the Effect (Monkey [11]) was 40 and the Effect (Monkey [12]) was 17.7. For the same compound, the Effect (Monkey [13]) was 22, the Effect (Monkey [14]) was 33 and the Effect (Monkey [15]) was 16.7. For the same compound, the Effect (Monkey [16]) was 68, the Effect (Monkey [17]) was 27.5 and the Effect (Monkey [18]) was 18.3. For the same compound, the Effect (Monkey [19]) was 26.3, the Effect (Monkey [20]) was 8 and the Effect (Monkey [21]) was 11. The Effect (Monkey [22]) was 26 and the Effect (Monkey [23]) was 29.

In the case of `COc1cc(OCC(O)CN2CCN(c3ccccc3O)CC2)cc(OC)c1OC` (stereo not drawn), the ED50 (Mus musculus [24]) is reported as 200 mg/kg, the ED50 (Mus musculus [25]) is reported as 100 mg/kg and the Therapeutic index [26] is reported as 154. It also gave an ED50 (Mus musculus [27]) of 1.3 mg/kg and a Therapeutic index [28] of 77.
